Reference: ChEMBL document CHEMBL2021921 (Bioorg Med Chem Lett, 2012)
Values belong to the compound of their own block, whether it stands above or below them. The source made the active and inactive calls. The calls are words filed in the database; no cut-off is given here. Where a SMILES comes first, the peptide text is derived from it. [ ]: non-standard residue; d: D form. The star is where a group is joined. Adenosine(5'-uronoyl) = Nc1ncnc2c1ncn2[C@@H]1O[C@H](C(=O)*)[C@@H](O)[C@H]1O; X1 = Nc1nccc(-c2ccc(C(=O)*)s2)n1; Ahx = NCCCCCC(=O)O

Assays:
[1] = Displacement of fluorescent-ARC-1063 from recombinant bovine PKAc by luminescence intensity assay; design: species or system Bos taurus
[2] = biological target: T1, Rho-associated protein kinase 2 (Homo sapiens, UniProt O75116); test: Displacement of fluorescent-ARC-1063 from His6-tagged recombinant human ROCK2 by luminescence intensity assay
Target sequence in this assay (O75116 whole entry): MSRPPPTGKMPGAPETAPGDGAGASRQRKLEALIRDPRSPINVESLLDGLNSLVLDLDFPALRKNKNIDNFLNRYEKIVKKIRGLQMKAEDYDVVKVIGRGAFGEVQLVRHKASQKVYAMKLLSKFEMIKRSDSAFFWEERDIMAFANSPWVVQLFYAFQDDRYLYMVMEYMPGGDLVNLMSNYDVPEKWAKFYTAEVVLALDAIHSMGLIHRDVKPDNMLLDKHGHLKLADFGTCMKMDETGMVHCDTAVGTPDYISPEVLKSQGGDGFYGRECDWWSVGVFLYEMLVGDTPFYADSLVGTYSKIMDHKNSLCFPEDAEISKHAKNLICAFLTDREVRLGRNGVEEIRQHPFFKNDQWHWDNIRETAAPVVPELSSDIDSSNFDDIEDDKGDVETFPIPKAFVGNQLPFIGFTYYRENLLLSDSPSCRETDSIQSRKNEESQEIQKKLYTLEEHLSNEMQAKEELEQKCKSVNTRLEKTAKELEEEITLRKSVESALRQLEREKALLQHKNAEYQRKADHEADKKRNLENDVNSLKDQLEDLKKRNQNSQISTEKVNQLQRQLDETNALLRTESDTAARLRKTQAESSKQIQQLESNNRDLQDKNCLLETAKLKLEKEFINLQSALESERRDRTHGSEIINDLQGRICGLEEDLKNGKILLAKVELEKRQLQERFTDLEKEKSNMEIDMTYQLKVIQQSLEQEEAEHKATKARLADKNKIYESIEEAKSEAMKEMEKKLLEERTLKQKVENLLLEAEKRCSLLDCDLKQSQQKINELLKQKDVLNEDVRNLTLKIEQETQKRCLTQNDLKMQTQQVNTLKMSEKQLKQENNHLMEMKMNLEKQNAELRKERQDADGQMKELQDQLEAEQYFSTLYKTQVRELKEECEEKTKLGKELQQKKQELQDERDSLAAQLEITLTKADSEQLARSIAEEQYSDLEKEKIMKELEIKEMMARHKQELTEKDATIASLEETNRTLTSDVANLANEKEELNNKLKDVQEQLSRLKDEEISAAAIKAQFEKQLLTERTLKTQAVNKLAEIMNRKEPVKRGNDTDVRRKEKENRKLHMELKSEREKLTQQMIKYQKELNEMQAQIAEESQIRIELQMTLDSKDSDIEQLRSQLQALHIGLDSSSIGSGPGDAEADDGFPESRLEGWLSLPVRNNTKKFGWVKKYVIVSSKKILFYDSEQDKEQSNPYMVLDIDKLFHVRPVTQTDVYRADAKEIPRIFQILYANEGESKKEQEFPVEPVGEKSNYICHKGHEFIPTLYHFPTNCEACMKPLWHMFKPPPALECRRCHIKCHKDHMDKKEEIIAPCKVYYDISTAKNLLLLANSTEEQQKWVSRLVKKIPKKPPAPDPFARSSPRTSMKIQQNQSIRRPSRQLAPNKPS

[3] = Selectivity ratio of Kd for His6-tagged recombinant human ROCK2 to Kd for recombinant bovine PKAc
[4] = biological target: T1, Rho-associated protein kinase 2; test: Displacement of fluorescent-ARC-1042 from His6-tagged recombinant human ROCK2 by fluorescence anisotropy assay
Target sequence in this assay (O75116 whole entry): as above

[5] = Displacement of fluorescent-ARC-583/ARC-1042/ARC-1059 from His6-tagged recombinant human PKCeta S472D mutant by fluorescence anisotropy assay
[6] = Displacement of fluorescent-ARC-583/ARC-1042/ARC-1059 from recombinant bovine PKAc by fluorescence anisotropy assay; design: species or system Bos taurus
[7] = Displacement of fluorescent-ARC-583 from recombinant bovine PKAc by fluorescence anisotropy assay; design: species or system Bos taurus
[8] = biological target: T2, cGMP-dependent protein kinase 1 (Homo sapiens, UniProt Q13976); test: Displacement of fluorescent-ARC-583/ARC-1042/ARC-1059 from His6-tagged recombinant human PKG1alpha by fluorescence anisotropy assay
T2 sequence (Q13976 whole entry): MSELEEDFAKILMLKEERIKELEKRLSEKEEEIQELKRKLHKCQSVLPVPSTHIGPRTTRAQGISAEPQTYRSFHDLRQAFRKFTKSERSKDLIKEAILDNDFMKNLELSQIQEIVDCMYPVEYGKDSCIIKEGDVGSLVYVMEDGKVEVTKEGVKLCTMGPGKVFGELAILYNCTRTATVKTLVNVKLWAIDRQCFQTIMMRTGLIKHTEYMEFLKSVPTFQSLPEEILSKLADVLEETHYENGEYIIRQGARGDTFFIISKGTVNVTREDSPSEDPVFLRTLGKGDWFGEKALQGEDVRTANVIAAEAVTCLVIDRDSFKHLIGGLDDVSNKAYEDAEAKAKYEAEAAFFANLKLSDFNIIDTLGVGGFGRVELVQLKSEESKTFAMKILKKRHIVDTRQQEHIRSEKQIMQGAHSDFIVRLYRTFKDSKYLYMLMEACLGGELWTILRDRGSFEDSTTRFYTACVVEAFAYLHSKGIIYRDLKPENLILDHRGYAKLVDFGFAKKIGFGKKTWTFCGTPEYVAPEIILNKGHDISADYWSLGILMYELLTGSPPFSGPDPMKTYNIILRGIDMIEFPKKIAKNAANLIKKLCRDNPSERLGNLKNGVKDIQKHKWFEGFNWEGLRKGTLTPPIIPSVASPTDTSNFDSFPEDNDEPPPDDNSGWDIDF

[9] = biological target: RAC-gamma serine/threonine-protein kinase (Homo sapiens, UniProt Q9Y243, S472D); test: Displacement of fluorescent-ARC-583/ARC-1042/ARC-1059 from His6-tagged recombinant human AKT3 S472D mutant by fluorescence anisotropy assay
[10] = biological target: Ribosomal protein S6 kinase alpha-5 (Homo sapiens, UniProt O75582); test: Displacement of fluorescent-ARC-583/ARC-1042/ARC-1059 from His6-tagged recombinant human MSK1 by fluorescence anisotropy assay
[11] = biological target: Ribosomal protein S6 kinase beta-1 (Homo sapiens, UniProt P23443); test: Displacement of fluorescent-ARC-583/ARC-1042/ARC-1059 from His6-tagged recombinant human p70S6K by fluorescence anisotropy assay
[12] = biological target: T1, Rho-associated protein kinase 2; test: Displacement of fluorescent-ARC-583/ARC-1042/ARC-1059 from His6-tagged recombinant human ROCK2 by fluorescence anisotropy assay
Target sequence in this assay (O75116 whole entry): as the sequence (O75116 whole entry) above

[13] = biological target: T1, Rho-associated protein kinase 2; test: Displacement of fluorescent-ARC-1063 from His6-tagged recombinant human ROCK2 by fluorescence anisotropy assay
Target sequence in this assay (O75116 whole entry, looked up): as the sequence (O75116 whole entry) above

Bos taurus = species: Bos taurus; test: Displacement of fluorescent-ARC-1063 from recombinant bovine PKAc by fluorescence anisotropy assay
[14] = Inhibition of catalytic subunit of PKA
[15] = Inhibition of PKC
[16] = Binding affinity to PKAc
[17] = Binding affinity to PKG

Chain of Ribosomal protein S6 kinase beta-1 (P23443 whole entry): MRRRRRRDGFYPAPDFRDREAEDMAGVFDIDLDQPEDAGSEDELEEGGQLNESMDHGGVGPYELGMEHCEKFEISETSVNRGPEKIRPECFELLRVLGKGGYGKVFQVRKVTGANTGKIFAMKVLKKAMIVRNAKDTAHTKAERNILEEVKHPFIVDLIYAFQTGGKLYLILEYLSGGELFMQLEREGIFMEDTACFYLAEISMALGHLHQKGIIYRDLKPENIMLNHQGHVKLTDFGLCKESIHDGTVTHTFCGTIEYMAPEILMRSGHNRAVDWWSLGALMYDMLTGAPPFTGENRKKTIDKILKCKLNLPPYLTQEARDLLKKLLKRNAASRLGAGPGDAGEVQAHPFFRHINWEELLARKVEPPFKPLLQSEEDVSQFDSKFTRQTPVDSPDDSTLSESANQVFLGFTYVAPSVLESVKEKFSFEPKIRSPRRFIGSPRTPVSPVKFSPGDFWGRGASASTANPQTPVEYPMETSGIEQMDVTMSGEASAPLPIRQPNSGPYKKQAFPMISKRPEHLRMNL
Chain of Ribosomal protein S6 kinase alpha-5 (O75582 whole entry): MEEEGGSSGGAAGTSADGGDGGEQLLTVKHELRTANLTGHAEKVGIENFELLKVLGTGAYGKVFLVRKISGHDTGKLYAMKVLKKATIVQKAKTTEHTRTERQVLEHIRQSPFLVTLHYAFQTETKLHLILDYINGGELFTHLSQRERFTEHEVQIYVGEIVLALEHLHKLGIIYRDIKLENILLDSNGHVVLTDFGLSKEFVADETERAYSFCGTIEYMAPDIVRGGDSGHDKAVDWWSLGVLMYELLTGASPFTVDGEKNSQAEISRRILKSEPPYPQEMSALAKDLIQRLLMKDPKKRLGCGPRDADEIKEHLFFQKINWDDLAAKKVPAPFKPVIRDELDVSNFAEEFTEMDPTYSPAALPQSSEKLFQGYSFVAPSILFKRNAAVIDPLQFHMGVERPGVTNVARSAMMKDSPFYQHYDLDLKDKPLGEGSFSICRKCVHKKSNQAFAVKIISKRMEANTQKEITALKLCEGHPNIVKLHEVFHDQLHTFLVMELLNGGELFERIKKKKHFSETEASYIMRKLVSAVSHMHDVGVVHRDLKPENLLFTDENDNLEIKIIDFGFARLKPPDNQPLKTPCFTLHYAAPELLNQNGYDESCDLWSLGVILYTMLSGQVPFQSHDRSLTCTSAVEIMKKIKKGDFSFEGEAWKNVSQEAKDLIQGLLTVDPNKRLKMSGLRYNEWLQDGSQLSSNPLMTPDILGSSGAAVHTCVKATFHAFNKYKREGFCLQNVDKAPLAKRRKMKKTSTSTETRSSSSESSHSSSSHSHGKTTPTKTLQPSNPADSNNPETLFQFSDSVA
Chain of RAC-gamma serine/threonine-protein kinase (Q9Y243 2-479 S472D limits assumed): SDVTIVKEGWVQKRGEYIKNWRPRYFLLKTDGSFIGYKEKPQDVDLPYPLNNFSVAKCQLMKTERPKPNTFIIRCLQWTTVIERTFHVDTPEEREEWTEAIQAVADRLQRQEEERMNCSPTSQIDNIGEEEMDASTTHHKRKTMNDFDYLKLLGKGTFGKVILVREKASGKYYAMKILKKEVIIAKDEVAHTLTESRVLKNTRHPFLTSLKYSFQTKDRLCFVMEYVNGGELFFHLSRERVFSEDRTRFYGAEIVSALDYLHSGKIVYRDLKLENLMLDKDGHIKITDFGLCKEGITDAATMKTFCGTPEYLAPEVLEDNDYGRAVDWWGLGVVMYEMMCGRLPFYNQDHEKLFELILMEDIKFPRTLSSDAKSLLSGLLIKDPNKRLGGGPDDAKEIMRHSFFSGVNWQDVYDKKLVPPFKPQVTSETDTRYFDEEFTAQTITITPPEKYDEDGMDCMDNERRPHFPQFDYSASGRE

pIC50 [4]: > 4.5
SMILES: N=C(N)NCCC[C@@H](NC(=O)[C@@H](CCCNC(=N)N)NC(=O)CNCC(=O)NCCNS(=O)(=O)c1cccc2cnccc12)C(N)=O

IC50 [4]: 162 nM
Kd [4]: 7 nM
IC50 [2]: 977 nM
Kd [2]: 6.4 nM
SMILES: NCCCC[C@@H](NC(=O)CCCCCNC(=O)[C@H]1O[C@@H](n2cnc3c(N)ncnc32)[C@H](O)[C@@H]1O)C(=O)NCCCCCC(=O)N[C@H](CCCN=C(N)N)C(=O)N[C@H](CCCN=C(N)N)C(N)=O

Selectivity Index [3]: 0.56
Kd [1]: 25 nM
pIC50 [1]: 4.12
pIC50 [5]: > 5
Kd [6]: 83 nM
pIC50 [6]: 6.16
SMILES: N=C(N)NCCC[C@@H](NC(=O)[C@@H](CCCNC(=N)N)NC(=O)CCCCCNC(=O)[C@@H](CCCCN)NC(=O)CCCCCCCN1CCCN(S(=O)(=O)c2cccc3cnccc23)CC1)C(N)=O

IC50 [4]: 16200 nM
Kd [4]: 690 nM
pIC50 [7]: > 4.5
SMILES: N=C(N)NCCC[C@@H](NC(=O)[C@@H](CCCNC(=N)N)NC(=O)CCCCCNC(=O)[C@H](CCCCN)NC(=O)CNCC(=O)NCCNS(=O)(=O)c1cccc2cnccc12)C(N)=O

IC50 [8]: 1860 nM
Kd [8]: 630 nM
IC50 [9]: 9120 nM
Kd [9]: 7100 nM
IC50 [10]: 4570 nM
Kd [10]: 1600 nM
IC50 [11]: 3310 nM
Kd [11]: 860 nM
IC50 [12]: 631 nM
Kd [12]: 27 nM
IC50 [2]: 6760 nM
Kd [2]: 45 nM
SMILES: NCCCC[C@@H](NC(=O)CCCCCCCN1CCCN(S(=O)(=O)c2cccc3cnccc23)CC1)C(=O)NCCCCCC(=O)N[C@H](CCCN=C(N)N)C(=O)N[C@H](CCCN=C(N)N)C(N)=O

Selectivity Index [3]: 0.7
Kd [1]: 4.5 nM
pIC50 [1]: 4.87
Kd [7]: 8.9 nM
pIC50 [7]: 7.22
SMILES: N=C(N)NCCC[C@@H](NC(=O)[C@@H](CCCNC(=N)N)NC(=O)CCCCCNC(=O)[C@@H](CCCCN)NC(=O)CCCCCNC(=O)[C@H]1O[C@@H](n2cnc3c(N)ncnc32)[C@H](O)[C@@H]1O)C(N)=O

pIC50 [4]: > 4.5
Kd [7]: 2500 nM
pIC50 [7]: 4.78
SMILES: N=C(N)NCCC[C@@H](NC(=O)[C@@H](CCCNC(=N)N)NC(=O)CCCCCNC(=O)[C@@H](CCCCN)NC(=O)CNCC(=O)NCCNS(=O)(=O)c1cccc2cnccc12)C(N)=O

Ki [16]: 1900 nM
Ki [17]: 800 nM
SMILES: NCCNS(=O)(=O)c1cccc2cnccc12

The remaining lines, values behind:

SMILES: O=S(=O)(c1cccc2cnccc12)N1CCCNCC1 [FASUDIL]
Kd [1]: 420 nM
pIC50 [1]: 4.26

SMILES: NCCCC[C@@H](NC(=O)CCCCCNC(=O)c1ccc(-c2ccnc(N)n2)s1)C(=O)NCCCCCC(=O)N[C@H](CCCN=C(N)N)C(=O)N[C@H](CCCN=C(N)N)C(=O)N[C@H](CCCN=C(N)N)C(=O)N[C@H](CCCN=C(N)N)C(=O)N[C@H](CCCN=C(N)N)C(=O)N[C@H](CCCN=C(N)N)C(N)=O ({X1-Ahx}-[dK][Ahx][dR][dR][dR][dR][dR][dR]-NH2)
IC50 [2]: 2.75 nM
Kd [2]: 0.0056 nM

SMILES: N=C(N)NCCC[C@@H](NC(=O)[C@@H](CCCNC(=N)N)NC(=O)[C@@H](CCCNC(=N)N)NC(=O)[C@@H](CCCNC(=N)N)NC(=O)[C@@H](CCCNC(=N)N)NC(=O)[C@@H](CCCNC(=N)N)NC(=O)CCCCCNC(=O)[C@@H](CCCCN)NC(=O)CCCCCNC(=O)c1ccc(-c2ccnc(N)n2)s1)C(N)=O ({X1-Ahx}-[dK][Ahx][dR][dR][dR][dR][dR][dR]-NH2)
Selectivity Index [3]: 10
Kd [1]: 0.056 nM
pIC50 [1]: 6.78

SMILES: N=C(N)NCCC[C@@H](NC(=O)[C@@H](CCCNC(=N)N)NC(=O)[C@@H](CCCNC(=N)N)NC(=O)[C@@H](CCCNC(=N)N)NC(=O)[C@@H](CCCNC(=N)N)NC(=O)[C@@H](CCCNC(=N)N)NC(=O)CNCC(=O)NCCNS(=O)(=O)c1cccc2cnccc12)C(N)=O
IC50 [4]: 151 nM
Kd [4]: 6.4 nM
Kd [7]: 120 nM
pIC50 [7]: 6.1

SMILES: N=C(N)NCCC[C@@H](NC(=O)[C@@H](CCCNC(=N)N)NC(=O)[C@@H](CCCNC(=N)N)NC(=O)[C@@H](CCCNC(=N)N)NC(=O)[C@@H](CCCNC(=N)N)NC(=O)[C@@H](CCCNC(=N)N)NC(=O)CCCCCNCCNS(=O)(=O)c1cccc2cnccc12)C(N)=O
IC50 [4]: 2.45 nM
Kd [4]: < 0.5 nM
Kd [5]: 980 nM
pIC50 [5]: 5.76
Kd [7]: 0.53 nM
pIC50 [7]: 8.26
Kd [6]: < 1 nM
pIC50 [6]: 8.26
IC50 [8]: 41.7 nM
Kd [8]: 13 nM
IC50 [9]: 72.4 nM
Kd [9]: 55 nM
IC50 [10]: 81.3 nM
Kd [10]: 26 nM
IC50 [11]: 6.46 nM
Kd [11]: < 1 nM
IC50 [12]: 2.45 nM
Kd [12]: < 0.5 nM

SMILES: N=C(N)NCCC[C@@H](NC(=O)[C@@H](CCCNC(=N)N)NC(=O)[C@@H](CCCNC(=N)N)NC(=O)[C@@H](CCCNC(=N)N)NC(=O)[C@@H](CCCNC(=N)N)NC(=O)[C@@H](CCCNC(=N)N)NC(=O)CCCCCNC(=O)[C@@H](CCCCN)NC(=O)CCCCCCCN1CCCN(S(=O)(=O)c2cccc3cnccc23)CC1)C(N)=O
Selectivity Index [3]: 165
inhibition [13]: Active
Kd [1]: 3.3 nM
pIC50 [1]: 5.01
inhibition (Bos taurus): Active
IC50 [2]: 10.2 nM
Kd [2]: 0.02 nM

SMILES: N=C(N)NCCC[C@@H](NC(=O)[C@@H](CCCNC(=N)N)NC(=O)[C@@H](CCCNC(=N)N)NC(=O)[C@@H](CCCNC(=N)N)NC(=O)[C@@H](CCCNC(=N)N)NC(=O)[C@@H](CCCNC(=N)N)NC(=O)CCCCCNC(=O)[C@@H](CCCCN)NC(=O)CCNC(=O)CNCC(=O)NCCNS(=O)(=O)c1cccc2cnccc12)C(N)=O
IC50 [4]: 17.8 nM
Kd [4]: 0.7 nM
Kd [7]: 24 nM
pIC50 [7]: 6.79

SMILES: N=C(N)NCCC[C@@H](NC(=O)[C@@H](CCCNC(=N)N)NC(=O)[C@@H](CCCNC(=N)N)NC(=O)[C@@H](CCCNC(=N)N)NC(=O)[C@@H](CCCNC(=N)N)NC(=O)[C@@H](CCCNC(=N)N)NC(=O)CCCCCNC(=O)[C@H]1O[C@@H](n2cnc3c(N)ncnc32)[C@H](O)[C@@H]1O)C(N)=O
Kd [1]: 0.25 nM
pIC50 [1]: 6.12

SMILES: N=C(N)NCCC[C@@H](NC(=O)[C@@H](CCCNC(=N)N)NC(=O)[C@@H](CCCNC(=N)N)NC(=O)[C@@H](CCCNC(=N)N)NC(=O)[C@@H](CCCNC(=N)N)NC(=O)[C@@H](CCCNC(=N)N)NC(=O)CCCCCNC(=O)[C@@H](CCCCN)NC(=O)CNCC(=O)NCCNS(=O)(=O)c1cccc2cnccc12)C(N)=O
IC50 [4]: 34.7 nM
Kd [4]: 1.5 nM
Kd [7]: 130 nM
pIC50 [7]: 6.07

SMILES: N=C(N)NCCC[C@H](NC(=O)[C@H](CCCNC(=N)N)NC(=O)[C@H](CCCNC(=N)N)NC(=O)[C@H](CCCNC(=N)N)NC(=O)[C@H](CCCNC(=N)N)NC(=O)[C@H](CCCNC(=N)N)NC(=O)[C@H](CO)NC(=O)CCNCCNS(=O)(=O)c1cccc2cnccc12)C(N)=O
IC50 [14]: 3 nM
IC50 [15]: 300 nM

SMILES: N=C(N)NCCC[C@@H](NC(=O)[C@@H](CCCNC(=N)N)NC(=O)[C@@H](CCCNC(=N)N)NC(=O)[C@@H](CCCNC(=N)N)NC(=O)[C@@H](CCCNC(=N)N)NC(=O)[C@@H](CCCNC(=N)N)NC(=O)CCCCCNC(=O)[C@@H](CCCCN)NC(=O)CCCCCNC(=O)[C@H]1O[C@@H](n2cnc3c(N)ncnc32)[C@H](O)[C@@H]1O)C(N)=O ({Adenosine(5'-uronoyl)-Ahx}-[dK][Ahx][dR][dR][dR][dR][dR][dR]-NH2)
Selectivity Index [3]: 12
Kd [1]: 0.26 nM
pIC50 [1]: 6.12
IC50 [2]: 10.5 nM
Kd [2]: 0.021 nM

SMILES: O=S(=O)(NCCNC/C=C/c1ccc(Br)cc1)c1cccc2cnccc12
Kd [1]: 17 nM
pIC50 [1]: 4.3
